In paper PMC6744936, “Genome-wide identification, characterization and expression pattern analysis of APYRASE family members in response to abiotic and biotic stresses in wheat” (PeerJ, 2019) one finds Km data, which are given here for 1 compound.

For the experiment, the system named is T1, TaAPY3-1.
T1 construct: pET22a, E. coli BL21; genome set A copy
Put plainly: phosphate release (Phosphate Assay Kit). As to conditions: 37 °C, pH 5.5, 8 mM Ca2+. It is filed as biochemical, Triticum aestivum.

Usually Km stands for the concentration of substrate that gives half-maximal velocity. As to `Nc1ncnc2c1ncn2[C@@H]1O[C@H](COP(=O)(O)OP(=O)(O)OP(=O)(O)O)[C@@H](O)[C@H]1O` [ATP], the Km came to 8.7 mM.
